Results taken from patent US4556671A, “Pharmaceutical formulations” (Burroughs Wellcome Co., priority 1981, dated 1985).
≈ marks a conversion by molar mass, not a printed value. Like-named read-outs stand apart in the source and are kept apart here.

What was measured:
Female Wistar rats = test: Acute Anti-inflammatory Activity: Carrageenin Test; type: in vivo, rat
Method: Female Wistar rats (100-150 g, groups of 5) were starved for approximately 24 hours prior to testing and througout the experimental period. Water was available ad. lib. […] A control group received Celacol alone. Immediately after dosing, each rat received, in a plantar area of the left hind foot, an injection of 0.1 ml of the supernatant of a 30 mg/ml suspension of carrageenin in 0.9% saline. The thickness of the foot was measured with calipers 1 hour and 4 hours after the carrageenin injection. The increases in foot thickness during this time was compared with those of the control group and the percentage reduction in swelling calculated for each tested group.

Leukocyte Migration = test: Carrageenin-impregnated sponge inflammatory exudates: leukocyte migration; type: in vivo, rat; conditions: 24 hours
Method: (§1) The sponges were removed after 24 hours, immersed in 5 ml herparinised saline and squeezed until dry.

Prostaglandin = test: Carrageenin-impregnated sponge inflammatory exudates: prostaglandin concentration; type: in vivo, rat; conditions: 24 hours
Method: as §1

mice = test: PBQ-Induced Algesia; type: in vivo; conditions: Mus musculus, po, read-out: ED50 (reduction of number of stretches by 50%)
Method: An irritant, p-phenylbenzquinone (PBQ), was administered to mice intraperitoneally at a dose of 5 mg/kg to elicit a stretch-reflex in the animal. The number of stretches in 25 minute period were counted.

HETE = test: Production of HETE (enzyme assay, Blackwell and Flower); type: biochemical; conditions: 100 μg/ml
lipoxygenase = test: Inhibition of Lipoxygenase (enzyme assay, Blackwell and Flower); type: biochemical
[1] = tested on: cyclo-oxygenase and lipoxygenase
[2] = rat, oral, suspension in 0.25% Celacol, reduction in foot swelling 1 to 4 hours after carrageenin, read-out: ED50
[3] = 30 mins prior to PBQ 5 mg/kg intraperitoneally, stretches in 25 minutes

CCCCC1C(=O)N(c2ccccc2)N(c2ccccc2)C1=O [Phenylbutazone, reference compound]
ED50 (Female Wistar rats; [2]): 22 mg/kg

CC1CC(N)=NN1c1ccc(Cl)cc1.Cl (centres unmarked) [Example 24, 3-Amino-1-p-chlorophenyl-5-methyl-2-pyrazoline hydrochloride]
ED50 (Female Wistar rats; [2]): 36 mg/kg

C[C@@H]1C[C@H]2[C@@H]3CCC4=CC(=O)C=C[C@]4(C)[C@@]3(F)[C@@H](O)C[C@]2(C)[C@@]1(O)C(=O)CO [Dexamethasone]
Inhibition of Leukocyte Migration (Leukocyte Migration; 0.1 mg/kg i.m., s.e.m): 62% ± 17 | Inhibition of Leukocyte Migration (Leukocyte Migration; 0.1 mg/kg p.o.): ~ 30% | Reduction of Prostaglandin Concentration (Prostaglandin; 0.1 mg/kg i.m., s.e.m): 64% ± 6 | Reduction of Prostaglandin Concentration (Prostaglandin; 0.1 mg/kg p.o.): ~ 30%

NC1=NN(c2ccc(Cl)cc2)CC1 [Example 6, 3-Amino-1-p-chlorophenyl-2-pyrazoline]
ED50 (Female Wistar rats; [2]): 22 mg/kg | ED50 (mice; [3]): 13 mg/kg

NC1=NN(c2cccc(C(F)(F)F)c2)CC1 [Example 1, 3-Amino-1-(m-trifluoromethylphenyl)pyrazol-2-ine]
ED50 (Female Wistar rats; [2]): 11 mg/kg | Inhibition of Leukocyte Migration (Leukocyte Migration; 50 mg/kg p.o., s.e.m): 73% ± 9 | reduction of the production of HETE (HETE): less than 20% | IC50 (lipoxygenase) (lipoxygenase): 0.72 µg/mL (≈ 3.14 µM) | inhibition of cyclo-oxygenase and lipoxygenase activity (in words) [1]: equally active in inhibiting cyclo-oxygenase and lipoxygenase activity | doses at which cyclo-oxygenase and lipoxygenase are inhibited (in words) ([1]; compared with the other heterocyclic compounds of formula (I)): at doses substantially below those of the other heterocyclic compounds of formula (I) | ED50 (mice; [3]): 20.6 mg/kg

NC1=NN(c2ccccc2)CC1 [Example 7, 3-Amino-1-phenyl-2-pyrazoline]
ED50 (Female Wistar rats; [2]): 60 mg/kg

COc1ccc2c(c1)c(CC(=O)O)c(C)n2C(=O)c1ccc(Cl)cc1 [Indomethacin]
Inhibition of Leukocyte Migration (Leukocyte Migration; 4 mg/kg p.o., s.e.m): 26% ± 7 | Reduction of Prostaglandin Concentration (Prostaglandin; 4 mg/kg p.o.): 98%

CC(=O)Oc1ccccc1C(=O)O [Aspirin, reference compound]
ED50 (Female Wistar rats; Rattus norvegicus, po, 4 h): 70 mg/kg | ED50 (mice): 70 mg/kg
